In publication PMC12373846, “Hemoglobin as a pseudoperoxidase and drug target for oxidative stress-related diseases” (Signal Transduction and Targeted Therapy, 2025):

Target: T1, HRP (Armoracia rusticana, UniProt P00433)
T1 sequence (P00433 31-353): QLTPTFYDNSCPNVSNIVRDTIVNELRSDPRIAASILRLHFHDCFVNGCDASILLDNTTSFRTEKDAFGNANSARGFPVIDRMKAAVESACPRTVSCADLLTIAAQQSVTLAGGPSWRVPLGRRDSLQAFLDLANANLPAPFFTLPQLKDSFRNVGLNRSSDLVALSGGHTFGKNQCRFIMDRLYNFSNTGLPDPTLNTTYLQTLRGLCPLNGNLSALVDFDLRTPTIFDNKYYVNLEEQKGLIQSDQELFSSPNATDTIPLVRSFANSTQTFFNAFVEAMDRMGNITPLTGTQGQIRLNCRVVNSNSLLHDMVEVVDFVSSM
Assay: Amplex Red H2O2 assay (HRP-dependent)
Format: biochemical, horseradish
Conditions: Fig. 1b; read-out: EC50, dose-response in Amplex Red assay
Experimental: Hb (Sigma‒Aldrich, H7379), H2O2 (Sigma‒Aldrich, H1009), and Amplex Red reagents (Invitrogen, A12222) were obtained for the study. A 4 μM H2O2 solution was prepared in 50 mM sodium phosphate buffer (pH 7.2). Then, 49 μl of this mixture was mixed with 1 μl of the test compound in DMSO or distilled water. The mixture was combined with an assay mixture of Amplex Red reagent (20 mM stock to 0.1 mM) and HRP (200 U/ml stock to 0.2 U/ml) and added to the wells at 50 μl/well. After a 60-min incubation at 37 °C, resorufin production was quantified via a microplate fluorescence reader (SpectraMax iD5, Molecular Devices) at ex/em = 535/580 nm. The H2O2-decomposing activity was estimated via the following equation: (sample fluorescence-blank fluorescence)/(control […]-blank fluorescence) × 100. For the ROS-Glo assay, the H2O2 substrate solution and ROS-Glo detection solution were prepared according to the manufacturer’s instructions. 10 μM H2O2 and drugs were prepared as in the Amplex Red assay, with HRP, Hb, CAT, or GPx added as needed. […] Luminescence was measured via iD5 microplate readers. The H2O2-decomposing activity was estimated via the following equation: (sample luminescence-blank luminescence)/(control luminescence-blank luminescence) × 100. The U/ml was calculated on the basis of the amount of H2O2 reduced by Hb during the reaction, using μg/ml and U/mg.

Q: `O=C(O)c1cc(NCCc2ccc(C(F)(F)F)cc2)ccc1O` [HTPEB, 2-hydroxy-5-[2-(4-trifluoromethyl-phenyl)-ethylamino]-benzoic acid, reference compound] was tested. Which EC50 did it give?
A: Its EC50 is 1.8 µM.
